Test results from the supplement of paper PMC11061612.

Key:
Test in all cases: combination Emax (second highest fraction inhibited in the dose matrix, 72 h); higher = more inhibition; extreme values may be limits of the assay
[1] = test system: KARPAS-299 (T-Cell Non-Hodgkin's Lymphoma)
Procedure, shortened: (§1)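 After 24 hours at 37°C and 5% CO2 in 1536-well plates, cells in DMEM/F12 or RPMI plus 10% FBS received two-drug dose matrices for 72 hours. Viability came from CellTiter-Glo 2.0 luminescence and was scaled as inhibition, anchored at 0 by vehicle wells and at 1 by blank wells. Combination Emax is taken as the second-highest inhibition in the matrix, and Bliss excess as the observed combination effect less EA + EB − EA·EB, with EA and EB the single-agent effects.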

PWR-1E (Non-Cancerous) = test system: PWR-1E (Non-Cancerous)
Procedure, shortened: as §1

[2] = test system: NUGC-3 (Gastric Carcinoma)
Procedure, shortened: as §1

[3] = test system: OVCAR-4 (Ovarian Carcinoma)
Procedure, shortened: as §1

D-263MG (Glioblastoma) = test system: D-263MG (Glioblastoma)
Procedure, shortened: as §1

UACC-62 (Melanoma) = test system: UACC-62 (Melanoma)
Procedure, shortened: as §1

[4] = test system: PANC-04-03 (Pancreatic Carcinoma)
Procedure, shortened: as §1

[5] = test system: NCI-H358 (Lung Adenocarcinoma)
Procedure, shortened: as §1

EW-24 (Ewing's Sarcoma) = test system: EW-24 (Ewing's Sarcoma)
Procedure, shortened: as §1

[6] = test system: EFM-19 (Breast Carcinoma)
Procedure, shortened: as §1

[7] = test system: SU8686 (Pancreatic Carcinoma)
Procedure, shortened: as §1

[8] = test system: HSC-4 (Oral Cavity Carcinoma)
Procedure, shortened: as §1

[9] = test system: EoL-1-cell (Acute Myeloid Leukemia)
Procedure, shortened: as §1

YH-13 (Glioblastoma) = test system: YH-13 (Glioblastoma)
Procedure, shortened: as §1

TK10 (Kidney Carcinoma) = test system: TK10 (Kidney Carcinoma)
Procedure, shortened: as §1

[10] = test system: Hs-766T (Pancreatic Carcinoma)
Procedure, shortened: as §1

[11] = test system: Ca9-22 (Head and Neck Carcinoma)
Procedure, shortened: as §1

[12] = test system: HOP-62 (Lung Adenocarcinoma)
Procedure, shortened: as §1

[13] = test system: SCC-15 (Oral Cavity Carcinoma)
Procedure, shortened: as §1

TGW (Neuroblastoma) = test system: TGW (Neuroblastoma)
Procedure, shortened: as §1

CCN(CCO)CCCOc1ccc2c(Nc3cc(CC(=O)Nc4cccc(F)c4)[nH]n3)ncnc2c1 [AZD2811] + C[C@@H]1COCCN1C2=NC(=NC(=C2)C3(CC3)[S@](=N)(=O)C)C4=C5C=CNC5=NC=C4 [AZD6738] (first compound max 1 µM, 7x7, partner max 10 µM)
combination Emax [1]: 0.936
combination Emax (PWR-1E (Non-Cancerous)): 0.908
combination Emax [2]: 0.697
combination Emax [3]: 0.688
combination Emax (D-263MG (Glioblastoma)): 0.619
combination Emax (UACC-62 (Melanoma)): 0.519
combination Emax [4]: 0.545
combination Emax [5]: 0.55
combination Emax (EW-24 (Ewing's Sarcoma)): 0.567
combination Emax [6]: 0.355
combination Emax [7]: 0.248
combination Emax [8]: 0.677
combination Emax [9]: 1
combination Emax (YH-13 (Glioblastoma)): 0.54
combination Emax (TK10 (Kidney Carcinoma)): 0.602
combination Emax [10]: 0.547
combination Emax [11]: 0.903
combination Emax [12]: 0.436
combination Emax [13]: 0.437
combination Emax (TGW (Neuroblastoma)): 0.706

CCN(CCO)CCCOc1ccc2c(Nc3cc(CC(=O)Nc4cccc(F)c4)[nH]n3)ncnc2c1 [AZD2811] + O=C(c1cc(Cc2n[nH]c(=O)c3ccccc23)ccc1F)N1CCN(C(=O)C2CC2)CC1 [Olaparib] (first compound max 1 µM, 7x7, partner max 10 µM)
combination Emax [1]: 0.423
combination Emax (PWR-1E (Non-Cancerous)): 0.538
combination Emax [2]: 0.274
combination Emax [3]: 0.227
combination Emax (D-263MG (Glioblastoma)): 0.418
combination Emax (UACC-62 (Melanoma)): 0.258
combination Emax [4]: 0.227
combination Emax [5]: 0.184
combination Emax (EW-24 (Ewing's Sarcoma)): 0.337
combination Emax [6]: 0.322
combination Emax [7]: 0.145
combination Emax [8]: 0.245
combination Emax [9]: 1
combination Emax (YH-13 (Glioblastoma)): 0.474
combination Emax (TK10 (Kidney Carcinoma)): 0.189
combination Emax [10]: 0.186
combination Emax [11]: 0.195
combination Emax [12]: 0.155
combination Emax [13]: 0.281
combination Emax (TGW (Neuroblastoma)): 0.532

CN(C)CCCOc1ccc(-c2ccc3ncc4c(c3c2)n(C2CCOCC2)c(=O)n4C)cn1 [AZD0156] + C=CCn1c(=O)c2cnc(Nc3ccc(N4CCN(C)CC4)cc3)nc2n1-c1cccc(C(C)(C)O)n1 [AZD1775] (first compound max 1 µM, partner max 1 µM)
combination Emax [1]: 0.918
combination Emax (PWR-1E (Non-Cancerous)): 0.678
combination Emax [2]: 0.552
combination Emax [3]: 0.55
combination Emax (D-263MG (Glioblastoma)): 0.38
combination Emax (UACC-62 (Melanoma)): 0.391
combination Emax [4]: 0.471
combination Emax [5]: 0.472
combination Emax (EW-24 (Ewing's Sarcoma)): 0.279
combination Emax [6]: 0.607
combination Emax [7]: 0.208
combination Emax [8]: 0.389
combination Emax [9]: 0.996
combination Emax (YH-13 (Glioblastoma)): 0.352
combination Emax (TK10 (Kidney Carcinoma)): 0.353
combination Emax [10]: 0.43
combination Emax [11]: 0.721
combination Emax [12]: 0.266
combination Emax [13]: 0.308
combination Emax (TGW (Neuroblastoma)): 0.769

C=CCn1c(=O)c2cnc(Nc3ccc(N4CCN(C)CC4)cc3)nc2n1-c1cccc(C(C)(C)O)n1 [AZD1775] + C1CN(CCC1(C(=O)N[C@@H](CCO)C2=CC=C(C=C2)Cl)N)C3=NC=NC4=C3C=CN4 [Capivasertib] (first compound max 3 µM, partner max 3 µM)
combination Emax [1]: 0.947
combination Emax (PWR-1E (Non-Cancerous)): 0.988
combination Emax [2]: 0.715
combination Emax [3]: 0.672
combination Emax (D-263MG (Glioblastoma)): 0.696
combination Emax (UACC-62 (Melanoma)): 0.458
combination Emax [4]: 0.571
combination Emax [5]: 0.663
combination Emax (EW-24 (Ewing's Sarcoma)): 0.503
combination Emax [6]: 0.71
combination Emax [7]: 0.202
combination Emax [8]: 0.629
combination Emax [9]: 1
combination Emax (YH-13 (Glioblastoma)): 0.519
combination Emax (TK10 (Kidney Carcinoma)): 0.503
combination Emax [10]: 0.325
combination Emax [11]: 0.921
combination Emax [12]: 0.428
combination Emax [13]: 0.676
combination Emax (TGW (Neuroblastoma)): 0.889

Cc1c2c(nn1C)CSCc1cc(n(C)n1)CSc1cc(c3ccccc3c1)OCCCc1c(C(=O)O)n(C)c3c-2c(Cl)ccc13 [AZD5991] + CCN(CCO)CCCOc1ccc2c(Nc3cc(CC(=O)Nc4cccc(F)c4)[nH]n3)ncnc2c1 [AZD2811] (first compound max 1 µM, 7x7, partner max 1 µM)
combination Emax [1]: 0.987
combination Emax (PWR-1E (Non-Cancerous)): 0.939
combination Emax [2]: 0.391
combination Emax [3]: 0.506
combination Emax (D-263MG (Glioblastoma)): 0.994
combination Emax (UACC-62 (Melanoma)): 0.887
combination Emax [4]: 0.237
combination Emax [5]: 0.403
combination Emax (EW-24 (Ewing's Sarcoma)): 0.383
combination Emax [6]: 0.783
combination Emax [7]: 0.172
combination Emax [8]: 0.404
combination Emax [9]: 1
combination Emax (YH-13 (Glioblastoma)): 0.579
combination Emax (TK10 (Kidney Carcinoma)): 0.228
combination Emax [10]: 0.346
combination Emax [11]: 0.465
combination Emax [12]: 0.446
combination Emax [13]: 0.307
combination Emax (TGW (Neuroblastoma)): 0.402

COc1cccc2c1C(=O)c1c(O)c3c(c(O)c1C2=O)C[C@@](O)(C(=O)CO)C[C@@H]3O[C@H]1C[C@H](N)[C@H](O)[C@H](C)O1 [Doxorubicin] + Cc1cc2ncnn2cc1Nc1ncc2c(n1)n(C1CCOCC1)c(=O)n2C [AZD7648] (first compound max 1 µM, 7x7, partner max 10 µM)
combination Emax [1]: 0.941
combination Emax (PWR-1E (Non-Cancerous)): 0.89
combination Emax [2]: 0.907
combination Emax [3]: 0.451
combination Emax (D-263MG (Glioblastoma)): 0.789
combination Emax (UACC-62 (Melanoma)): 0.935
combination Emax [4]: 0.278
combination Emax [5]: 0.821
combination Emax (EW-24 (Ewing's Sarcoma)): 0.719
combination Emax [6]: 0.437
combination Emax [7]: 0.203
combination Emax [8]: 0.437
combination Emax [9]: 1
combination Emax (YH-13 (Glioblastoma)): 0.754
combination Emax (TK10 (Kidney Carcinoma)): 0.773
combination Emax [10]: 0.43
combination Emax [11]: 0.831
combination Emax [12]: 0.619
combination Emax [13]: 0.329
combination Emax (TGW (Neuroblastoma)): 0.497

NC1(C(=O)N[C@@H](CCO)c2ccc(Cl)cc2)CCN(c2ncnc3[nH]ccc23)CC1 [Capivasertib] + Cn1cnc2c(F)c(Nc3ccc(Br)cc3Cl)c(C(=O)NOCCO)cc21 [Selumetinib] (first compound max 10 µM, 7x7, partner max 10 µM)
combination Emax [1]: 0.587
combination Emax (PWR-1E (Non-Cancerous)): 0.486
combination Emax [2]: 0.662
combination Emax [3]: 0.338
combination Emax (D-263MG (Glioblastoma)): 0.518
combination Emax (UACC-62 (Melanoma)): 0.908
combination Emax [4]: 0.576
combination Emax [5]: 0.585
combination Emax (EW-24 (Ewing's Sarcoma)): 0.485
combination Emax [6]: 0.477
combination Emax [7]: 0.26
combination Emax [8]: 0.609
combination Emax [9]: 1
combination Emax (YH-13 (Glioblastoma)): 0.598
combination Emax (TK10 (Kidney Carcinoma)): 0.534
combination Emax [10]: 0.591
combination Emax [11]: 0.554
combination Emax [12]: 0.644
combination Emax [13]: 0.524
combination Emax (TGW (Neuroblastoma)): 0.262
